Reference: the NIST ThermoML archive (doi:10.1016/j.tca.2013.03.025)
Several values for one entry are separate records, joined by “and”; a condition that tells them apart may be missing. Equal values may be shown once.

Legend:
[1] = refractive index (Na D-line) (dimensionless); xn = mol fraction of the nth substance listed; conditions: 101 kPa, Liquid, Standard Abbe refractometry, x2 = 0
[2] = xn = mol fraction of the nth substance listed; conditions: 101 kPa, Liquid, x2 = 0; for viscosity: Concentric cylinders viscometry; for mass density: Vibrating tube method
[3] = refractive index (Na D-line) (dimensionless); conditions: 101.33 kPa, Liquid, Standard Abbe refractometry
[4] = 101 kPa, Liquid; for viscosity: Concentric cylinders viscometry; for mass density: Vibrating tube method

CCCO [propan-1-ol] + CCCCOC(=O)C(C)O
Conditions | mass density, [2] [kg/m3] | refractive index, [1] | viscosity, [2] [mPa·s]
288.15 K | 807.752 | 1.38751 | 2.514
293.15 K | 803.767 | 1.38543 | 2.208
298.15 K | 799.755 | 1.3834 | 1.95
303.15 K | 795.717 | 1.38137 | 1.727
308.15 K | 791.638 | 1.37918 | 1.542
313.15 K | 787.521 | 1.37702 | 1.378
318.15 K | 783.357 | 1.37482 | 1.236
323.15 K | 779.137 | 1.37262 | 1.124

CCCO [propan-1-ol]
Conditions | mass density, [4] [kg/m3] | refractive index, [3] | viscosity, [4] [mPa·s]
288.15 K | 807.752 | 1.38751 | 2.514
293.15 K | 803.767 | 1.38543 | 2.208
298.15 K | 799.755 | 1.3834 | 1.95
303.15 K | 795.717 | 1.38137 | 1.727
308.15 K | 791.638 | 1.37918 | 1.542
313.15 K | 787.521 | 1.37702 | 1.378
318.15 K | 783.357 | 1.37482 | 1.236
323.15 K | 779.137 | 1.37262 | 1.124

OCCCO [propan-1,3-diol]
Conditions | mass density, [4] [kg/m3] | refractive index, [3] | viscosity, [4] [mPa·s]
288.15 K | 1055.96 | 1.44072 | 66.71
293.15 K | 1052.86 | 1.43932 | 52.02
298.15 K | 1049.75 | 1.43793 | 41.11
303.15 K | 1046.63 | 1.43653 | 32.89
308.15 K | 1043.5 | 1.43512 | 26.61
313.15 K | 1040.35 | 1.43374 | 21.76
318.15 K | 1037.17 | 1.43232 | 17.97
323.15 K | 1033.98 | 1.43087 | 14.97

CC(O)CO (stereo not drawn) [1,2-propanediol]
Conditions | mass density, [4] [kg/m3] | refractive index, [3] | viscosity, [4] [mPa·s]
288.15 K | 1039.87 | 1.43437 | 82.54
293.15 K | 1036.25 | 1.4327 | 59.62
298.15 K | 1032.56 | 1.43102 | 44.03
303.15 K | 1028.88 | 1.42934 | 33.16
308.15 K | 1025.14 | 1.42764 | 25.45
313.15 K | 1021.35 | 1.42591 | 19.85
318.15 K | 1017.52 | 1.4242 | 15.73
323.15 K | 1013.66 | 1.42246 | 12.64

CC(O)CO (stereo not drawn) [1,2-propanediol] + CCCCOC(=O)C(C)O
Conditions | mass density, [2] [kg/m3] | refractive index, [1] | viscosity, [2] [mPa·s]
288.15 K | 1039.87 | 1.43437 | 82.54
293.15 K | 1036.25 | 1.4327 | 59.62
298.15 K | 1032.56 | 1.43102 | 44.03
303.15 K | 1028.88 | 1.42934 | 33.16
308.15 K | 1025.14 | 1.42764 | 25.45
313.15 K | 1021.35 | 1.42591 | 19.85
318.15 K | 1017.52 | 1.4242 | 15.73
323.15 K | 1013.66 | 1.42246 | 12.64

CCCCOC(=O)C(C)O (stereo not drawn) [butyl 2-hydroxypropanoate]
Conditions | mass density, [4] [kg/m3] | refractive index, [3] | viscosity, [4]
288.15 K | 987.269 | 1.42379 | 4.628 mPa·s
293.15 K | 982.366 | 1.42152 | 3.88 mPa·s
298.15 K | 977.448 | 1.41925 | 3.307 mPa·s
303.15 K | 972.515 | 1.41697 | 2.85 mPa·s and 2.86 mPa·s
308.15 K | 967.567 | 1.41469 and 1.4147 | 2.481 mPa·s
313.15 K | 962.603 | 1.4124 and 1.41241 | 2.181 mPa·s
318.15 K | 957.624 | 1.41006 and 1.41005 | 1.935 mPa·s
323.15 K | 952.631 | 1.40778 | 1.728 mPa·s

OCCCO [propan-1,3-diol] + CCCCOC(=O)C(C)O
Conditions | mass density, [2] [kg/m3] | refractive index, [1] | viscosity, [2] [mPa·s]
288.15 K | 1055.96 | 1.44072 | 66.71
293.15 K | 1052.86 | 1.43932 | 52.02
298.15 K | 1049.75 | 1.43793 | 41.11
303.15 K | 1046.63 | 1.43653 | 32.89
308.15 K | 1043.5 | 1.43512 | 26.61
313.15 K | 1040.35 | 1.43374 | 21.76
318.15 K | 1037.17 | 1.43232 | 17.97
323.15 K | 1033.98 | 1.43087 | 14.97
